Results published in patent US9963463B2, “Urea-substituted indanes as P38 map kinase inhibitors” (TORRENT PHARMACEUTICALS LIMITED, priority 2014, dated 2018).

Molecular target: T1, purified recombinant human p38 alpha MAPK (Homo sapiens, UniProt Q16539)
T1 construct: purchased Millipore, USA
Test: Inhibition of p38 alpha MAPK activity, TR-FRET kinase assay
Assay type: biochemical
Details: for inhibition at 1 µM / inhibition at 0.1 µM: read-out: P38α Inhibition; for inhibition at 0.1 µM: Concentration 100 nM
Method: Inhibition of p38 Alpha MAPK Activity: Time-Resolved Fluorescence Resonance Energy Transfer Kinase Standard Assay (TR-FRET Assay)
Compounds of present invention at various concentrations were premixed with DMSO. The experiment was initiated by mixing 0.5%-1.0% DMSO as vehicle/compounds with purified recombinant human p38 alpha MAPK (Millipore, USA) in the wells and 15 min incubation at room temperature. Thereafter, 30 nM of Biotinylated GST-ATF2 (Activation transcription Factor2) and 100 μM of ATP were added in to the wells containing reaction mixture, followed by reincubation for 60 minutes at RT. Reaction was terminated by addition of 10 mM of EDTA and detection reagent containing anti-phosphotheronine ATF2 antibody (PerkinElmer®, USA) labeled with europium chelate and APC (Allophycocyanin) labeled streptavidin, into the reaction mixture which was further incubated for 60 minutes at room temperature. The degree of phosphorylation of the substrate (GST-ATF2) was measured using Envision multimode reader (PerkinElmer®). Percentage inhibition of p38 kinase activity was calculated by determining ratio of specific europium 665 nm energy transfer signal to reference 615 nm signal.

T1 sequence (Q16539 whole entry): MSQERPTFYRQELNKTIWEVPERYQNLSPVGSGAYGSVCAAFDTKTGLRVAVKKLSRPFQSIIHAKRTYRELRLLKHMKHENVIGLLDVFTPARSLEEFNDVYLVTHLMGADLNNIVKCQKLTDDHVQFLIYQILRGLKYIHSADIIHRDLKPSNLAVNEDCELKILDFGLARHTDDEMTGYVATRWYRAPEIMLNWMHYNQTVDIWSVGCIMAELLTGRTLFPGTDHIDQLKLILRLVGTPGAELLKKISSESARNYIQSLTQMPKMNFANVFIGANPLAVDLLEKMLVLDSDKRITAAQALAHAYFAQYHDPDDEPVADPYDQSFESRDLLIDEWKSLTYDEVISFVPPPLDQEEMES

`Cc1ccc(-n2nc(C(C)(C)C)cc2NC(=O)Nc2ccc(OCC(=O)N3CCn4c(nnc4C(F)(F)F)C3)c3c2CCC3)cc1` [Compound 1, 1-[3-tert-butyl-1-(4-methylphenyl)-1H-pyrazol-5-yl]-3-(7-{2-oxo-2-[3-(trifluoromethyl)-5,6-dihydro[1,2,4]triazolo[4,3-a]pyrazin-7(8H)-yl]ethoxy}-2,3-dihydro-1H-inden-4-yl)urea] gave an inhibition at 1 µM (Concentration 1 μM) of 80 to 100%.

`COc1c(NC(=O)Nc2ccc(OCCN3CCN(CC4CC4)C(=O)C3)c3c2CCC3)cc(C(C)(C)C)cc1NC(=O)C1CC1` [Compound 64, N-(5-tert-butyl-3-{[(7-{2-[4-(cyclopropylmethyl)-3-oxopiperazin-1-yl]ethoxy}-2,3-dihydro-1H-inden-4-yl)carbamoyl]amino}-2-methoxyphenyl)cyclopropanecarboxamide] was tested, and the inhibition at 1 µM (Concentration 1 μM) was 20 to 40%.

`COc1c(NC(=O)Nc2ccc(OCCN3CCn4c(nnc4-c4cccc(O)c4)C3)c3c2CCC3)cc(C(C)(C)C)cc1NS(C)(=O)=O` [Compound 46, N-(5-tert-butyl-3-{[(7-{2-[3-(3-hydroxyphenyl)-5,6-dihydro[1,2,4]triazolo[4,3-a]pyrazin-7(8H)-yl]ethoxy}-2,3-dihydro-1H-inden-4-yl)carbamoyl]amino}-2-methoxyphenyl)methanesulfonamide] was tested, and the inhibition at 0.1 µM was 60 to 80%.

With `Cc1ccc(-n2nc(C(C)(C)C)cc2NC(=O)Nc2ccc(OCCN3CCN(CC4CCC4)C(=O)C3)c3c2CCC3)cc1` [Compound 22, 1-[3-tert-butyl-1-(4-methylphenyl)-1H-pyrazol-5-yl]-3-(7-{2-[4-(cyclobutylmethyl)-3-oxopiperazin-1-yl]ethoxy}-2,3-dihydro-1H-inden-4-yl)urea] the inhibition at 1 µM (Concentration 1 μM) was 80 to 100%.

Molecule `CSc1ccccc1-c1nnc2n1CCN(C(=O)COc1ccc(NC(=O)Nc3cc(C(C)(C)C)nn3-c3ccc(C)cc3)c3c1CCC3)C2` [Compound 10, 1-[3-tert-butyl-1-(4-methylphenyl)-1H-pyrazol-5-yl]-3-[7-(2-{3-[2-(methylsulfanyl)phenyl]-5,6-dihydro[1,2,4]triazolo[4,3-a]pyrazin-7(8H)-yl}-2-oxoethoxy)-2,3-dihydro-1H-inden-4-yl]urea] has an inhibition at 1 µM (Concentration 1 μM) of 80 to 100%.

In the case of `COc1ccccc1-c1nnc2n1CCN(CCOc1ccc(NC(=O)Nc3cc(C(C)(C)C)nn3-c3ccc(O)c(Cl)c3)c3c1CCC3)C2` [Compound 25, 1-[3-tert-buty1-1-(3-chloro-4-hydroxyphenyl)-1H-pyrazol-5-yl]-3-(7-{2-[3-(2-methoxyphenyl)-5,6-dihydro[1,2,4]triazolo[4,3-a]pyrazin-7(8H)-yl]ethoxy}-2,3-dihydro-1H-inden-4-yl)urea], the “P38α Inhibition” value (Concentration 1 μM) is reported as “+++++ (+++++ = Inhibition ≥80% ≥ 100%)”.

For `CCS(=O)(=O)Nc1cc(C(C)(C)C)cc(NC(=O)Nc2ccc(OCCN3CCn4c(nnc4-c4ccccc4SC)C3)c3c2CCC3)c1OC` [Compound 45, N-[5-tert-butyl-2-methoxy-3-({[7-(2-{3-[2-(methylsulfanyl)phenyl]-5,6-dihydro[1,2,4]triazolo[4,3-a]pyrazin-7(8H)-yl}ethoxy)-2,3-dihydro-1H-inden-4-yl]carbamoyl}amino)phenyl]ethanesulfonamide], the inhibition at 0.1 µM was 80 to 100%.

For `COc1ccccc1-c1nnc2n1CCN(C(=O)COc1ccc(NC(=O)Nc3cc(C(C)(C)C)nn3-c3ccc(O)c(Cl)c3)c3c1CCC3)C2` [Compound 8, 1-[3-tert-butyl-1-(3-chloro-4-hydroxyphenyl)-1H-pyrazol-5-yl]-3-(7-{2-[3-(2-methoxyphenyl)-5,6-dihydro[1,2,4]triazolo[4,3-a]pyrazin-7(8H)-yl]-2-oxoethoxy}-2,3-dihydro-1H-inden-4-yl)urea], the inhibition at 1 µM (Concentration 1 μM) was 80 to 100%.

With `Cc1ccc(-n2nc(C(C)(C)C)cc2NC(=O)Nc2ccc(OCCN3CCn4c(nnc4-c4cccc(O)c4)C3)c3c2CCC3)cc1` [Compound 36, 1-[3-tert-butyl-1-(4-methylphenyl)-1H-pyrazol-5-yl]-3-(7-{2-[3-(3-hydroxyphenyl)-5,6-dihydro[1,2,4]triazolo[4,3-a]pyrazin-7(8H)-yl]ethoxy}-2,3-dihydro-1H-inden-4-yl)urea] the inhibition at 1 µM (Concentration 1 μM) was 80 to 100%.

Work on `Cc1ccc(-n2nc(C(C)(C)C)cc2NC(=O)Nc2ccc(OCCN3CCN(CCO)C(=O)C3)c3c2CCC3)cc1` [Compound 6, 1-[3-tert-butyl-1-(4-methylphenyl)-1H-pyrazol-5-yl]-3-(7-{2-[4-(2-hydroxyethyl)-3-oxopiperazin-1-yl]ethoxy}-2,3-dihydro-1H-inden-4-yl)urea] yielded an inhibition at 1 µM (Concentration 1 μM) of 80 to 100%.

Molecule `COc1c(NC(=O)Nc2ccc(OCCN3CCn4c(nnc4-c4ccccc4O)C3)c3c2CCC3)cc(C(C)(C)C)cc1NS(C)(=O)=O` [Compound 40, N-(5-tert-butyl-3-{[(7-{2-[3-(2-hydroxyphenyl)-5,6-dihydro[1,2,4]triazolo[4,3-a]pyrazin-7(8H)-yl]ethoxy}-2,3-dihydro-1H-inden-4-yl)carbamoyl]amino}-2-methoxyphenyl)methanesulfonamide] has an inhibition at 1 µM (Concentration 1 μM) of 80 to 100%.

`Cc1ccc(-n2nc(C(C)(C)C)cc2NC(=O)Nc2ccc(OCCN3CCn4c(nnc4-c4cccc(Cl)c4O)C3)c3c2CCC3)cc1` [Compound 29, 1-[3-tert-butyl-1-(4-methylphenyl)-1H-pyrazol-5-yl]-3-(7-{2-[3-(3-chloro-2-hydroxyphenyl)-5,6-dihydro[1,2,4]triazolo[4,3-a]pyrazin-7(8H)-yl]ethoxy}-2,3-dihydro-1H-inden-4-yl)urea] gave an inhibition at 1 µM (Concentration 1 μM) of 80 to 100%.

For `COc1ccccc1-c1nnc2n1CCN(CCOc1ccc(NC(=O)Nc3cc(C(C)(C)C)nn3-c3ccc(C)cc3)c3c1CCC3)C2` [Compound 14, 1-[3-tert-butyl-1-(4-methylphenyl)-1H-pyrazol-5-yl]-3-(7-{2-[3-(2-methoxyphenyl)-5,6-dihydro[1,2,4]triazolo[4,3-a]pyrazin-7(8H)-yl]ethoxy}-2,3-dihydro-1H-inden-4-yl)urea], the inhibition at 1 µM (Concentration 1 μM) was 80 to 100%.

`CCCCOc1ccccc1-c1nnc2n1CCN(CCOc1ccc(NC(=O)Nc3cc(C(C)(C)C)nn3-c3ccc(C)cc3)c3c1CCC3)C2` [Compound 32, 1-(7-{2-[3-(2-butoxyphenyl)-5,6-dihydro[1,2,4]triazolo[4,3-a]pyrazin-7(8H)-yl]ethoxy}-2,3-dihydro-1H-inden-4-yl)-3-[3-tert-butyl-1-(4-methylphenyl)-1H-pyrazol-5-yl]urea] was tested, and the inhibition at 1 µM (Concentration 1 μM) was 80 to 100%.

Molecule `CCCSc1ccccc1-c1nnc2n1CCN(CCOc1ccc(NC(=O)Nc3cc(C(C)(C)C)nn3-c3ccc(O)c(Cl)c3)c3c1CCC3)C2` [Compound 35, 1-[3-tert-butyl-1-(3-chloro-4-hydroxyphenyl)-1H-pyrazol-5-yl]-3-[7-(2-{3-[2-(propylsulfanyl)phenyl]-5,6-dihydro[1,2,4]triazolo[4,3-a]pyrazin-7(8H)-yl}ethoxy)-2,3-dihydro-1H-inden-4-yl]urea] has an inhibition at 1 µM (Concentration 1 μM) of 80 to 100%.

`CCOC(=O)c1c(NC(=O)C2CC2)sc2c1CCN(C(=O)COc1ccc(NC(=O)Nc3cc(C(C)(C)C)nn3-c3ccc(C)cc3)c3c1CCC3)C2` [Compound 54, ethyl 6-({[7-({[3-tert-butyl-1-(4-methylphenyl)-1H-pyrazol-5-yl]carbamoyl}amino)-2,3-dihydro-1H-inden-4-yl]oxy}acetyl)-2-[(cyclopropylcarbonyl)amino]-4,5,6,7-tetrahydrothieno[2,3-c]pyridine-3-carboxylate] gave an inhibition at 1 µM (Concentration 1 μM) of under 20%.
